In patent US10570118B2, “Isoquinolones as BTK inhibitors” (Boehringer Ingelheim International GmbH, priority 2016, dated 2020):

What follows are compounds tested against BTK (Homo sapiens (Human), UniProt Q06187) (assay: Inhibition of IL-6 production in B cells co-stimulated with ODN 2006 and anti-hIgD). Conditions: primary CD19+ B cells, anti-human IgD + ODN 2006 stimulation, 18-24 hours; read-out: B-cell IL-6 IC50.
Type: cell-based
Experimental: Inhibition of IL-6 Production in B Cells Co-Stimulated with ODN 2006 and Anti-hIgD
Primary CD19+ B cells (AllCells # PB010F) are thawed and plated in RPMI containing 10% HI FBS in a 384-well tissue cultured plate at 20,000 cells/well. The cells are treated with test compound (0.5% DMSO final concentration) and incubated for 1 hour at 37° C., 5% CO2. Cells are then stimulated with 5 μg/mL Goat F(ab′)2 anti-human IgD (SouthernBiotech #2032) and 2 uM ODN 2006 (InvivoGen # till-2006) and incubated for 18-24 hours at 37° C., 5% CO2. IL-6 in the supernatant is measured using Meso Scale Discovery kit # K211AKB-6.
(§1) The compounds described herein show a range of selectivity against EGFR as measured in cellular assays (BTK activity measured by IL-6 production in primary CD19^+ cells; EGFR activity measured by EGFR phosphorylation in A431 cells).

BTK, sequence (Q06187 whole entry): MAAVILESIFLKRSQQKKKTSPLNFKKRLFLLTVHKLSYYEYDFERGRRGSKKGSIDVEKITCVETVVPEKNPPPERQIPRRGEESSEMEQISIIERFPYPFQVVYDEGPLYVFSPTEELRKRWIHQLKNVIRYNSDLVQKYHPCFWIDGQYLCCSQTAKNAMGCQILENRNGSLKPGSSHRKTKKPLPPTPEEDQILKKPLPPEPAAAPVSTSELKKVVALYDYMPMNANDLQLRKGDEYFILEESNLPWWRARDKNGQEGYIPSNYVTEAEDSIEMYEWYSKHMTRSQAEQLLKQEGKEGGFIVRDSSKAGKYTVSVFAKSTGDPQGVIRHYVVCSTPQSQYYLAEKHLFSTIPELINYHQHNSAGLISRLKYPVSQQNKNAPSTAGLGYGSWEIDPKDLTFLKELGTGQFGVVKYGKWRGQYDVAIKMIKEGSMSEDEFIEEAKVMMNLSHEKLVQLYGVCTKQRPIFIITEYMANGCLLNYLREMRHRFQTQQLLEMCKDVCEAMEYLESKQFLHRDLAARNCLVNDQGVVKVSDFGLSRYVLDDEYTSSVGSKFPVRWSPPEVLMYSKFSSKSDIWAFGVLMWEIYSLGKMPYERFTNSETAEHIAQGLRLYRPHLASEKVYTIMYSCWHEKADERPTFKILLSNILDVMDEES

Going from `C=CC(=O)N1CC(c2cc3cc(C4CC4)ccc3c(=O)n2-c2cccc(-c3cc(C(N)=O)n(C)c3)c2CO)C1` (single isomer, unassigned) [Example 43] to `C=CC(=O)N1CCC(c2cc3cc(C4CC4)ccc3c(=O)n2-c2cccc(-c3cc(C(N)=O)n(C)c3)c2CO)C1` (stereo not shown) [Example 13], the IC50 rises from 3.6 nM to 12 nM (3.3-fold).

`Cn1cc(-c2cccc(-n3c(C4CN(C#N)C4)cc4cc(C5CC5)ccc4c3=O)c2CO)cc1C(N)=O` [Example 1] and `C=CC(=O)N1CC(c2cc3cc(C4CC4)ccc3c(=O)n2-c2cccc(-c3cc(C(N)=O)n(C)c3)c2CO)C1` [Example 7] are within 1.5-fold of each other in IC50: 4.3 nM for the first, 5.6 nM for the second.

First: C=CC(=O)N1CC(Cc2cc3cc(C4CC4)ccc3c(=O)n2-c2cccc(-c3cc(C(N)=O)n(C)c3)c2CO)C1 [Example 2]
Second: CC#CC(=O)N1CC(Cc2cc3cc(C4CC4)ccc3c(=O)n2-c2cccc(-c3cc(C(N)=O)n(C)c3)c2CO)C1 [Example 8]
The IC50 of the first is 2.7-fold lower: 36 nM for the first, 96 nM for the second. The first is the more potent here.

First: C=CC(=O)N1CC(c2cc3cc(C4CC4)ccc3c(=O)n2-c2cccc(-c3cccc(C(N)=O)c3)c2CO)C1 [Example 5]
Second: C=CC(=O)N1CC(c2cc3cc(C4CC4)ccc3c(=O)n2-c2cccc(-c3ccnc(N)c3)c2CO)C1 [Example 17]
The IC50 of the first is 27-fold higher: 100 nM for the first, 3.7 nM for the second.

Compared with `C=CC(=O)N1CCC1Cc1cc2cc(C3CC3)ccc2c(=O)n1-c1cccc(-c2cc(C(N)=O)n(C)c2)c1CO` (stereo not shown) [Example 6], `C=CC(=O)N(C)Cc1cc2cc(C3CC3)ccc2c(=O)n1-c1cccc(-c2cc(C(N)=O)n(C)c2)c1CO` [Example 18] is 10-fold higher in IC50: 16 nM for the first, 160 nM for the second. The first is the more potent here.

First: C=CC(=O)N1CC(c2cc3cc(C4CC4)ccc3c(=O)n2-c2cccc(-c3cc(N)c(=O)n(C)c3)c2CO)C1 [Example 11]
Second: C=CC(=O)N1CCC(c2cc3cc(C4CC4)ccc3c(=O)n2-c2cccc(-c3cc(N)c(=O)n(C)c3)c2CO)C1 (stereo not shown) [Example 16]
The IC50 of the first is 4.4-fold lower: 21 nM for the first, 92 nM for the second. The first is the more potent here.

First: N#CN1CC(c2cc3cc(C4CC4)ccc3c(=O)n2-c2cccc(-c3cc(N)ncn3)c2CO)C1 [Example 12]
Second: C=CC(=O)N1CC(c2cc3cc(C4CC4)ccc3c(=O)n2-c2cccc(-c3cc(N)ncn3)c2CO)C1 [Example 21]
The IC50 of the first is 15-fold higher: 28 nM for the first, 1.9 nM for the second.

Compared with `C=CC(=O)N1CC(Cc2cc3cc(C4CC4)ccc3c(=O)n2-c2cccc(-c3cc(N)ncn3)c2CO)C1` [Example 14], `C=CC(=O)N1CC(c2cc3cc(C4CC4)ccc3c(=O)n2-c2cccc(-c3ccnc(NC)c3)c2CO)C1` [Example 15] is 9.7-fold lower in IC50: 85 nM for the first, 8.8 nM for the second. The second is the more potent here.

First: C=CC(=O)N1CC(c2cc3cc(C4CC4)ccc3c(=O)n2-c2cccc(-c3ccnc(N)c3)c2Cl)C1 [Example 20]
Second: C=CC(=O)N1CC(c2cc3cc(C4CC4)cc(F)c3c(=O)n2-c2cccc(-c3cc(C(N)=O)n(C)c3)c2CO)C1 [Example 40]
The IC50 of the first is 8-fold higher: 37 nM for the first, 4.6 nM for the second. The second is the more potent here.

The compounds below were run against human full length His-tagged BTK (Homo sapiens (Human), UniProt Q06187) (assay: BTK Lanthscreen Eu Kinase Binding assay). Conditions: TR-FRET tracer displacement, 2 nM BTK, 30 min pre-incubation.
human full length His-tagged BTK, sequence (Q06187 whole entry): as above
Experimental: BTK Lanthscreen® Eu Kinase Binding assay:
A Lanthscreen® Eu Kinase Binding assay (Life Technologies) was performed to quantitate the ability of test compounds to bind to BTK. The assay is based on the binding and displacement of Alexa Fluor647-labeled Kinase Tracer #236 to the ATP-binding site of human full length His-tagged BTK (Life Technologies cat # PV3587) with TR-FRET detection using a europium-labeled anti-His antibody. The assay was assembled in 384-well low volume NBS black plates (Corning) where 2 nM BTK and test compound in DMSO at varying concentrations were pre-incubated for 30 min at 28° C. in assay buffer consisting of 50 mM HEPES, pH 7.4, 10 mM MgCl2, 1 mM EGTA. 100 μM Na3VO4 and 0.01% Brij 35. Then, 2 nM of Eu-anti His antibody and 30 nM Kinase Tracer were added and incubated for […] at 28° C. Following incubation, TR-FRET signal was read on an Envision plate reader (Excitation: 340 nm; Emissions: 615 and 665 nm). The 665: 615 nm emission ratio was calculated and converted to POC compared to control and blank wells.

Compared with `C=CC(=O)N1CC(c2cc3cc(C4CC4)ccc3c(=O)n2-c2cccc(-c3cc(C(N)=O)n(C)c3)c2CO)C1` (single isomer, unassigned) [Example 42], `C=CC(=O)N1CCC(c2cc3cc(C4CC4)ccc3c(=O)n2-c2cccc(-c3cc(C(N)=O)n(C)c3)c2CO)C1` (stereo not shown) [Example 13] is 230-fold lower in IC50: 560 nM for the first, 2.4 nM for the second.

Going from `C=CC(=O)N1CC(c2cc3cc(C4CC4)ccc3c(=O)n2-c2cccc(-c3cc(C(N)=O)n(C)c3)c2CO)C1` (single isomer, unassigned) [Example 43] to `C=CC(=O)N1CC(Cc2cc3cc(C4CC4)ccc3c(=O)n2-c2cccc(-c3cc(C(N)=O)n(C)c3)c2CO)C1` [Example 2], the IC50 rises from 0.56 nM to 4 nM (7.1-fold).

`Cn1cc(-c2cccc(-n3c(C4CN(C#N)C4)cc4cc(C5CC5)ccc4c3=O)c2CO)cc1C(N)=O` [Example 1] and `C=CC(=O)N1CC(c2cc3cc(C4CC4)ccc3c(=O)n2-c2cccc(-c3cc(C(N)=O)n(C)c3)c2CO)C1` [Example 7] are the same in IC50: 0.7 nM for the first, 0.7 nM for the second.

Going from `N#CN1CC(c2cc3cc(C4CC4)ccc3c(=O)n2-c2cccc(-c3ccc4[nH]ncc4c3)c2CO)C1` [Example 3] to `N#CN1CC(c2cc3cc(C4CC4)ccc3c(=O)n2-c2cccc(-c3cc(N)ncn3)c2CO)C1` [Example 12], the IC50 rises from 1.9 nM to 3.3 nM (1.7-fold).

`C=CC(=O)N1CC(c2cc3cc(C4CC4)ccc3c(=O)n2-c2cccc(-c3cccc(C(N)=O)c3)c2CO)C1` [Example 5] and `C=CC(=O)N1CC(c2cc3cc(C4CC4)ccc3c(=O)n2-c2cccc(-c3ccnc(NC)c3)c2CO)C1` [Example 15] are within 1.5-fold of each other in IC50: 5.2 nM for the first, 4.2 nM for the second.

Compared with `C=CC(=O)N1CCC1Cc1cc2cc(C3CC3)ccc2c(=O)n1-c1cccc(-c2cc(C(N)=O)n(C)c2)c1CO` (stereo not shown) [Example 6], `C=CC(=O)N(C)Cc1cc2cc(C3CC3)ccc2c(=O)n1-c1cccc(-c2cc(C(N)=O)n(C)c2)c1CO` [Example 18] is 15-fold higher in IC50: 3.9 nM for the first, 59 nM for the second.

First: CC#CC(=O)N1CC(Cc2cc3cc(C4CC4)ccc3c(=O)n2-c2cccc(-c3cc(C(N)=O)n(C)c3)c2CO)C1 [Example 8]
Second: C=CC(=O)N1CC(Cc2cc3cc(C4CC4)ccc3c(=O)n2-c2cccc(-c3cc(N)ncn3)c2CO)C1 [Example 14]
The IC50 of the first is 1.7-fold lower: 11 nM for the first, 19 nM for the second.

First: C=CC(=O)N1CC(c2cc3cc(C4CC4)ccc3c(=O)n2-c2cccc(-c3cc(N)c(=O)n(C)c3)c2CO)C1 [Example 11]
Second: C=CC(=O)N1CCC(c2cc3cc(C4CC4)ccc3c(=O)n2-c2cccc(-c3cc(N)c(=O)n(C)c3)c2CO)C1 (stereo not shown) [Example 16]
The IC50 of the first is 11-fold lower: 1.9 nM for the first, 20 nM for the second. The first is the more potent here.

Going from `C=CC(=O)N1CC(c2cc3cc(C4CC4)ccc3c(=O)n2-c2cccc(-c3ccnc(N)c3)c2Cl)C1` [Example 20] to `C=CC(=O)N1CC(c2cc3cc(C4CC4)ccc3c(=O)n2-c2cccc(-c3cc(N)ncn3)c2CO)C1` [Example 21], the IC50 falls from 8.9 nM to 0.48 nM (19-fold).

`C=CC(=O)N1CC(c2cc3cc(C4CC4)cc(F)c3c(=O)n2-c2cccc(-c3cc(C(N)=O)n(C)c3)c2CO)C1` [Example 40] gave an IC50 of 0.42 nM.

What follows are compounds tested against EGFR (Homo sapiens (Human), UniProt P00533) (assay: Inhibition of EGFR autophosphorylation in A431 human epithelial cells stimulated with epithelial growth factor). Conditions: 16 hours compound, EGF 60 ng/mL 10 minutes, read-out: A431 p-EGFR IC50.
EGFR, sequence (P00533 25-1210): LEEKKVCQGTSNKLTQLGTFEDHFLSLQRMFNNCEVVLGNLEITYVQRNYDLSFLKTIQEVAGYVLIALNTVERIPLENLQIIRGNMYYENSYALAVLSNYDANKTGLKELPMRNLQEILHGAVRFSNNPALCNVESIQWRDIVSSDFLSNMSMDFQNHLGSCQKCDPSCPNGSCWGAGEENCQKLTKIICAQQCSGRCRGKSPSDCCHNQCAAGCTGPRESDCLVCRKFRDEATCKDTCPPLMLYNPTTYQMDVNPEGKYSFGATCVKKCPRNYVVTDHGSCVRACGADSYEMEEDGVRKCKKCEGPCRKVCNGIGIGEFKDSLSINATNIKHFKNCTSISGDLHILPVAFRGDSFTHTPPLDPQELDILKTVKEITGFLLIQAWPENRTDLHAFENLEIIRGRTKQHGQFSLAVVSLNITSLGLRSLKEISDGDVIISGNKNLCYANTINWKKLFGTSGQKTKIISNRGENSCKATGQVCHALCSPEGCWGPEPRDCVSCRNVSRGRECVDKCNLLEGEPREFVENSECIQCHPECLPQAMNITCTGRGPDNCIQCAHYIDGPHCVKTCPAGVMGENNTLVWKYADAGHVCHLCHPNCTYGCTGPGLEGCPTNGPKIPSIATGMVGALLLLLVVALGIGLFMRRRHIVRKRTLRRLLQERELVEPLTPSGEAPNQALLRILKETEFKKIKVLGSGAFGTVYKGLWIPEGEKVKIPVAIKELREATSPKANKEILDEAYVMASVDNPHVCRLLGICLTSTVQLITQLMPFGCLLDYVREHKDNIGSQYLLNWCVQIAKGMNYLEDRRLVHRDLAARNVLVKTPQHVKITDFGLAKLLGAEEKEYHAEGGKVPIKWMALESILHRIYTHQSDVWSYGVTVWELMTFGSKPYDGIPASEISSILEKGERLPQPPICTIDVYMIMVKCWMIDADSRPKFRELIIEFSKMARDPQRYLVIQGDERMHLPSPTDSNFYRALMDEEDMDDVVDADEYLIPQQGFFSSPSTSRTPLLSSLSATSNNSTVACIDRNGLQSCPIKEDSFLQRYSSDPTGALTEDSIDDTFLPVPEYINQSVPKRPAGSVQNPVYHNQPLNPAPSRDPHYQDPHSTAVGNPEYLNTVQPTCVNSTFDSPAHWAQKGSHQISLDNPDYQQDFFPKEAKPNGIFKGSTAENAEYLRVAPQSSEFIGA
Type: cell-based
Experimental: Inhibition of EGFR Autophosphorylation in A431 Human Epithelial Cells Stimulated with Epithelial Growth Factor
A431 cells (ATCC # CRL-1555 FZ) are thawed and plated in DMEM containing 10% FBS in a 384-well tissue culture treated plate at 15,000 cells/well. After incubating for 24 hours at 37° C., 5% CO2, the cells are treated with test compound (1% DMSO final concentration) and incubated for 16 hours at 37° C., 5% CO2. EGF (Millipore, 01-107) is added at a final concentration of 60 ng/mL and incubated for 10 minutes. The medium is removed, the cells are lysed, and phospho EGFR is measured (Meso Scale Diagnostics, N31CB-1).
as §1

`C=CC(=O)N1CC(c2cc3cc(C4CC4)ccc3c(=O)n2-c2cccc(-c3cc(C(N)=O)n(C)c3)c2CO)C1` (single isomer, unassigned) [Example 43] and `C=CC(=O)N1CCC(c2cc3cc(C4CC4)ccc3c(=O)n2-c2cccc(-c3cc(C(N)=O)n(C)c3)c2CO)C1` (stereo not shown) [Example 13] cannot be ordered by IC50: greater than 10000 nM for the first, greater than 10000 nM for the second.

Going from `Cn1cc(-c2cccc(-n3c(C4CN(C#N)C4)cc4cc(C5CC5)ccc4c3=O)c2CO)cc1C(N)=O` [Example 1] to `C=CC(=O)N1CC(c2cc3cc(C4CC4)ccc3c(=O)n2-c2cccc(-c3cc(C(N)=O)n(C)c3)c2CO)C1` [Example 7], the IC50 rises from 4700 nM to greater than 10000 nM.

`C=CC(=O)N1CC(Cc2cc3cc(C4CC4)ccc3c(=O)n2-c2cccc(-c3cc(C(N)=O)n(C)c3)c2CO)C1` [Example 2] and `CC#CC(=O)N1CC(Cc2cc3cc(C4CC4)ccc3c(=O)n2-c2cccc(-c3cc(C(N)=O)n(C)c3)c2CO)C1` [Example 8] cannot be ordered by IC50: greater than 10000 nM for the first, greater than 10000 nM for the second.

`C=CC(=O)N1CC(c2cc3cc(C4CC4)ccc3c(=O)n2-c2cccc(-c3cccc(C(N)=O)c3)c2CO)C1` [Example 5] and `C=CC(=O)N1CC(c2cc3cc(C4CC4)ccc3c(=O)n2-c2cccc(-c3ccnc(N)c3)c2CO)C1` [Example 17] cannot be ordered by IC50: greater than 10000 nM for the first, greater than 10000 nM for the second.

Going from `C=CC(=O)N1CCC1Cc1cc2cc(C3CC3)ccc2c(=O)n1-c1cccc(-c2cc(C(N)=O)n(C)c2)c1CO` (stereo not shown) [Example 6] to `C=CC(=O)N(C)Cc1cc2cc(C3CC3)ccc2c(=O)n1-c1cccc(-c2cc(C(N)=O)n(C)c2)c1CO` [Example 18], the IC50 rises from 4500 nM to greater than 10000 nM. The first is the more potent here.

`C=CC(=O)N1CC(c2cc3cc(C4CC4)ccc3c(=O)n2-c2cccc(-c3cc(N)c(=O)n(C)c3)c2CO)C1` [Example 11] and `C=CC(=O)N1CCC(c2cc3cc(C4CC4)ccc3c(=O)n2-c2cccc(-c3cc(N)c(=O)n(C)c3)c2CO)C1` (stereo not shown) [Example 16] cannot be ordered by IC50: greater than 10000 nM for the first, greater than 10000 nM for the second.

Compared with `N#CN1CC(c2cc3cc(C4CC4)ccc3c(=O)n2-c2cccc(-c3cc(N)ncn3)c2CO)C1` [Example 12], `C=CC(=O)N1CC(c2cc3cc(C4CC4)ccc3c(=O)n2-c2cccc(-c3cc(N)ncn3)c2CO)C1` [Example 21] is higher in IC50: 4500 nM for the first, greater than 10000 nM for the second.

`C=CC(=O)N1CC(Cc2cc3cc(C4CC4)ccc3c(=O)n2-c2cccc(-c3cc(N)ncn3)c2CO)C1` [Example 14] and `C=CC(=O)N1CC(c2cc3cc(C4CC4)ccc3c(=O)n2-c2cccc(-c3ccnc(NC)c3)c2CO)C1` [Example 15] cannot be ordered by IC50: greater than 10000 nM for the first, greater than 10000 nM for the second.

Going from `C=CC(=O)N1CC(c2cc3cc(C4CC4)ccc3c(=O)n2-c2cccc(-c3ccnc(N)c3)c2Cl)C1` [Example 20] to `C=CC(=O)N1CC(c2cc3cc(C4CC4)cc(F)c3c(=O)n2-c2cccc(-c3cc(C(N)=O)n(C)c3)c2CO)C1` [Example 40], the IC50 rises from 3200 nM to greater than 10000 nM. The first is the more potent here.
